Values of other authors as cited in PMC8177775 (Cancer Science, 2021).

Columns and labels:
[1] = system: patients with acute myeloid leukemia; details: n = 36; cited from earlier work
[2] = system: patients with solid tumors; details: cited from earlier work
[3] = system: patients with wild‐type p53 and RAS or RAF mutations and locally advanced or metastatic solid tumors; details: 26 patients; cited from earlier work

## CC(C)[C@@H](CS(=O)(=O)C(C)C)N1C(=O)[C@@](C)(CC(=O)O)C[C@H](c2cccc(Cl)c2)[C@H]1c1ccc(Cl)cc1 [AMG 232]
[1]
  Common treatment-related AEs: nausea, diarrhea, and vomiting
  MTD: not reached

## CCOc1cc(C(C)(C)C)ccc1C1=N[C@@](C)(c2ccc(Cl)cc2)[C@@](C)(c2ccc(Cl)cc2)N1C(=O)N1CCN(CCCS(C)(=O)=O)CC1 [RG7112]
[2]; n = 76
  Grade ≥ 3 lymphocyte count decreased: 11 patients
  Grade ≥ 3 platelet count decreased: two patients
[2]; patients (n = 76) with solid tumors
  Tolerability: generally well tolerated

## CC(C)(C)C[C@@H]1N[C@@H](C(=O)N[C@H]2CC[C@H](O)CC2)[C@H](c2cccc(Cl)c2F)[C@]12C(=O)Nc1cc(Cl)ccc12 [SAR405838]
[3]
  Most common reported AEs: diarrhea, blood creatine phosphokinase increased, nausea, and vomiting
